# Results taken from US12673975B2, “Cyclic peptide, cell scaffold material, cell separating material, and medium” (FUJIFILM Corporation, priority 2019, dated 2026).
# Where two headings read alike, the source gives them in different places. Starred links: 1 amine or outer side, 2 acyl side, 3 side chain; linkers in the order of their positions; H or OH if unused. Positions of bridges follow the written chain, without caps; N, C: chain ends. Non-standard residues stand in square brackets, D forms with d. Residues, ends and D or L forms follow the SMILES beside them. Pen = CC(C)(S)[C@H](N)C(=O)O; hCys = N[C@@H](CCS)C(=O)O; Dab = NCC[C@H](N)C(=O)O; Dap = NC[C@H](N)C(=O)O; X1 = O=C(C[*:2])[*:1]; X2 = O=C(C[*:1])[*:2]
# Key:
# [1] = molecular target: human integrin αvβ5 (Homo sapiens, UniProt P06756+P18084); test: Evaluation of integrin binding property (surface plasmon resonance, Biacore 3000, immobilized cyclic peptide)
# How it was run: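 SPR with cyclic peptide amine-coupled via EDC/NHS to a CM5 chip, blank channel as reference. Integrin αvβ5 at 30, 100, 300 and 1,000 nM injected 10 min at 25 °C in HEPES buffer pH 7.4 with 5 mM MgCl2, 30 min buffer flow, EDTA regeneration; Kd from reference-subtracted signals, graded by category.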
# [2] = Evaluation of molecule stability (alkali treatment, residual rate by LC/MS); assay type: physicochemical; settings: for Stability (molecule stability, residual rate of the cyclic peptide rank): alkali treatment, residual rate by LC/MS; for Performance evaluation: Stability (residual rate of cyclic peptide after alkali treatment): 500 μM peptide aqueous solution plus equivalent of 1 M sodium hydroxide, 15° C., 3 hours, LC/MS peak area
# How it was run: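 500 μM aqueous cyclic peptide mixed with an equal volume of 1 M NaOH and held 3 h at 15 °C. Residual rate is total LC/MS peak area after treatment relative to untreated (100%), using a C18 column, pH 3 ammonium formate/acetonitrile gradient, 45 °C, ESI±.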
# [3] = surface plasmon resonance, immobilized cyclic peptide, human integrin αvβ5, read-out: Binding activity (integrin binding property, dissociation constant rank)
# [4] = SPR, 25° C., HEPES buffer with 5 mM magnesium chloride, integrin 30-1,000 nM, read-out: Performance evaluation: Binding activity (dissociation constant between the cyclic peptide and human integrin αvβ5)
# human integrin αvβ5, sequence (P06756 31-1048): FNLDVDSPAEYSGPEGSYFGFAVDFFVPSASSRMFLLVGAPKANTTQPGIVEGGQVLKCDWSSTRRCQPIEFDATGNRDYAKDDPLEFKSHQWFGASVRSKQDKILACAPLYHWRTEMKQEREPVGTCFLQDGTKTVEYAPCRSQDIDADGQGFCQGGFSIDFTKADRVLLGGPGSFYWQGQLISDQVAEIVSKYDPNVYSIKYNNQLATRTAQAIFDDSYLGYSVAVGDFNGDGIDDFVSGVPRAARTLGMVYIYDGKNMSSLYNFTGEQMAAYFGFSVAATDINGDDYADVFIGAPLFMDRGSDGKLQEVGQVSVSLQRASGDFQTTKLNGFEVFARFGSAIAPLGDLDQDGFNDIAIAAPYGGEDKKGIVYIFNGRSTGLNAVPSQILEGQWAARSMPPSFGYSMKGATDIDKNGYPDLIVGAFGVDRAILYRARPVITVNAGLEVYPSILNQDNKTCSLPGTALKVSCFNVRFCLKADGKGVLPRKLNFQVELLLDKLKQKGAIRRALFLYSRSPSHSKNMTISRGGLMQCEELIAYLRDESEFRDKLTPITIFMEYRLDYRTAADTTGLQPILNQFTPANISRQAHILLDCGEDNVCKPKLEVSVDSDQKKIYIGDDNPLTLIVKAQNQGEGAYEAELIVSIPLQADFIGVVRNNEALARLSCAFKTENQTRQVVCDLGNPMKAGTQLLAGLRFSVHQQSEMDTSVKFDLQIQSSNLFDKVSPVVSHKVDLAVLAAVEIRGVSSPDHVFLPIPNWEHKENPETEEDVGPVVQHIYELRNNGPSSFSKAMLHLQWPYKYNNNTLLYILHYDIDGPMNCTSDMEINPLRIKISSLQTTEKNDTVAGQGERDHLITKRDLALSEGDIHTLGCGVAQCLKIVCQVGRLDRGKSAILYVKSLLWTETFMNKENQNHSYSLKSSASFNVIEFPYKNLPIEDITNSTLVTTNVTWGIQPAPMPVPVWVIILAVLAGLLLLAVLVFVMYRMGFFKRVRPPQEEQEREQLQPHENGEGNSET
# human integrin αvβ5, sequence (P18084 24-799): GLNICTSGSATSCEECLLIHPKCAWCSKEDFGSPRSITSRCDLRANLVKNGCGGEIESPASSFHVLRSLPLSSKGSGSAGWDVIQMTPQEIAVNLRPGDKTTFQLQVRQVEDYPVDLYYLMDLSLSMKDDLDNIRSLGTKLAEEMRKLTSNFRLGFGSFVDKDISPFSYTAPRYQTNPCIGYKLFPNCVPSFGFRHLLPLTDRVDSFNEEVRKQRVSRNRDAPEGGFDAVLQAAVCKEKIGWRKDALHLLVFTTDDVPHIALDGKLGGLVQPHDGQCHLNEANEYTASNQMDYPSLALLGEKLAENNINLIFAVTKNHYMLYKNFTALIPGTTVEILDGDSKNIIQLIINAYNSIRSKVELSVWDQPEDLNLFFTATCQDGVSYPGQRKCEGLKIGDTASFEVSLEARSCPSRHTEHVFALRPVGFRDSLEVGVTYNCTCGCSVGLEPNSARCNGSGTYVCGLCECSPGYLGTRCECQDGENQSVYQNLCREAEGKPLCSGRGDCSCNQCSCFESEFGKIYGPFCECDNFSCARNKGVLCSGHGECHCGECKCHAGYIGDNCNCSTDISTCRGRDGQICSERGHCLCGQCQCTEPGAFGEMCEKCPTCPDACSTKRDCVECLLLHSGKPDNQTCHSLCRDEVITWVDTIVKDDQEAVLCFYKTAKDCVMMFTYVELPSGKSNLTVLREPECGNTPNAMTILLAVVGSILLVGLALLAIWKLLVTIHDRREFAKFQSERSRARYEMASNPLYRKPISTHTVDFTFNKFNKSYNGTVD
Structure (SMILES),"Kd [1, 3] [nM]","Stability (molecule stability, residual rate of the cyclic peptide rank) [2]","Kd [1, 4] [nM]",Performance evaluation: Stability (residual rate of cyclic peptide after alkali treatment) [2]
"CC(C)[C@@H]1NC(=O)[C@@H](NC(=O)[C@H](C)NC(=O)[C@H](CCCCN)NC(=O)[C@H](CCCCN)NC(=O)[C@@H](N)CCCCN)CCNC(=O)CSC(C)(C)[C@@H](C(=O)N[C@@H](C)C(=O)O)NC(=O)[C@H](C)NC(=O)[C@H](Cc2ccccc2)NC(=O)[C@H]([C@@H](C)O)NC(=O)[C@H](CC(=O)O)NC(=O)CNC(=O)[C@H](CCCNC(=N)N)NC(=O)[C@@H]2CCCN2C1=O [Cyclic peptide 136, KKKA(Dab(acetyl))VPRGDTFA-(Pen)-A] (H-KKKA[Dab]VPRGDTFA[Pen]A-OH; linker 5-14 via X1)",< 50,A (The residual rate of the cyclic peptide is 70% or more.),–,–
"CC(C)[C@@H]1NC(=O)[C@@H](NC(=O)[C@H](C)NC(=O)[C@H](CCCCN)NC(=O)[C@H](CCCCN)NC(=O)[C@@H](N)CCCCN)CCSCC(=O)NCC[C@@H](C(=O)N[C@@H](C)C(=O)O)NC(=O)[C@H](CCCNC(=N)N)NC(=O)[C@H](Cc2ccccc2)NC(=O)[C@H]([C@@H](C)O)NC(=O)[C@H](CC(=O)O)NC(=O)CNC(=O)[C@H](CCCNC(=N)N)NC(=O)[C@@H]2CCCN2C1=O [Cyclic peptide 74, KKKA-(Hcy)-VPRGDTFR(Dab(acetyl))A] (H-KKKA[hCys]VPRGDTFR[Dab]A-OH; linker 5-14 via X2)",–,–,< 50,A (The residual rate of the cyclic peptide is 70% or more.)
"CC(C)[C@@H]1NC(=O)[C@@H](NC(=O)[C@H](C)NC(=O)[C@H](CCCCN)NC(=O)[C@H](CCCCN)NC(=O)[C@@H](N)CCCCN)CCSCC(=O)NCC[C@@H](C(=O)NCC(=O)O)NC(=O)[C@H](C)NC(=O)[C@H](Cc2ccccc2)NC(=O)[C@H](CO)NC(=O)[C@H](CC(=O)O)NC(=O)CNC(=O)[C@H](CCCNC(=N)N)NC(=O)[C@@H]2CCCN2C1=O [Cyclic peptide 97, KKKA-(Hcy)-VPRGDSFA(Dab(acetyl))G] (H-KKKA[hCys]VPRGDSFA[Dab]G-OH; linker 5-14 via X2)",–,–,< 50,A (The residual rate of the cyclic peptide is 70% or more.)
"N=C(N)NCCC[C@@H]1NC(=O)[C@H](Cc2ccc(O)cc2)NC(=O)[C@H](CC(N)=O)NC(=O)[C@H](CC(=O)O)NC(=O)CNC(=O)[C@H](CCCNC(=N)N)NC(=O)[C@@H]2CCCN2C(=O)[C@H](CCC(=O)O)NC(=O)[C@@H](NC(=O)[C@H](CC(=O)O)NC(=O)[C@H](CCCCN)NC(=O)[C@H](CCCCN)NC(=O)[C@@H](N)CCCCN)CCSCC(=O)NCC[C@@H](C(=O)N[C@@H](CC(=O)O)C(=O)O)NC1=O [Cyclic peptide 38, KKKD-(Hcy)-EPRGDNYR(Dab(acetyl))D] (H-KKKD[hCys]EPRGDNYR[Dab]D-OH; linker 5-14 via X2)",–,–,50 to 100,A (The residual rate of the cyclic peptide is 70% or more.)
"CC[C@H](C)[C@@H]1NC(=O)[C@@H](NC(=O)[C@H](C)NC(=O)[C@H](CCCCN)NC(=O)[C@H](CCCCN)NC(=O)[C@@H](N)CCCCN)CCSCC(=O)NCC[C@@H](C(=O)N[C@@H](C)C(=O)O)NC(=O)[C@H](CCCNC(=N)N)NC(=O)[C@@H]2CCCN2C(=O)[C@H]([C@@H](C)O)NC(=O)[C@H](CC(=O)O)NC(=O)CNC(=O)[C@H](CCCNC(=N)N)NC(=O)[C@@H]2CCCN2C1=O [Cyclic peptide 80, KKKA-(Hcy)-IPRGDTPR(Dab(acetyl))A] (H-KKKA[hCys]IPRGDTPR[Dab]A-OH; linker 5-14 via X2)",–,–,50 to 100,A (The residual rate of the cyclic peptide is 70% or more.)
"CC(C)[C@@H]1NC(=O)[C@@H](N)CCSCC(=O)NCC[C@@H](C(=O)N[C@@H](CCCCN)C(=O)N[C@@H](CCCCN)C(=O)N[C@@H](CCCCN)C(=O)O)NC(=O)[C@H](C)NC(=O)[C@H](Cc2ccccc2)NC(=O)[C@H]([C@@H](C)O)NC(=O)[C@H](CC(=O)O)NC(=O)CNC(=O)[C@H](CCCNC(=N)N)NC(=O)[C@@H]2CCCN2C1=O [Cyclic peptide 103, (Hcy)-VPRGDTFA(Dab(acetyl))KKK] (H-[hCys]VPRGDTFA[Dab]KKK-OH; linker 1-10 via X2)",< 50,A (The residual rate of the cyclic peptide is 70% or more.),–,–
"CC[C@H](C)[C@@H]1NC(=O)[C@@H](NC(=O)[C@H](C)NC(=O)[C@H](CCCCN)NC(=O)[C@H](CCCCN)NC(=O)[C@@H](N)CCCCN)CCNC(=O)CSCC[C@@H](C(=O)N[C@@H](C)C(=O)O)NC(=O)[C@H](C)NC(=O)[C@H](Cc2ccccc2)NC(=O)[C@H](CO)NC(=O)[C@H](CC(=O)O)NC(=O)CNC(=O)[C@H](CCCNC(=N)N)NC(=O)[C@@H]2CCCN2C1=O [Cyclic peptide 124, KKKA(Dab(acetyl))IPRGDSFA-(Hcy)-A] (H-KKKA[Dab]IPRGDSFA[hCys]A-OH; linker 5-14 via X1)",50 to 100,A (The residual rate of the cyclic peptide is 70% or more.),–,–
"C[C@H](NC(=O)[C@H](CCCCN)NC(=O)[C@H](CCCCN)NC(=O)[C@@H](N)CCCCN)C(=O)N[C@H]1CCSCC(=O)NCC[C@@H](C(=O)N[C@@H](CC(=O)O)C(=O)O)NC(=O)[C@H](CCCNC(=N)N)NC(=O)[C@H](Cc2ccc(O)cc2)NC(=O)[C@H](CC(N)=O)NC(=O)[C@H](CC(=O)O)NC(=O)CNC(=O)[C@H](CCCNC(=N)N)NC(=O)[C@@H]2CCCN2C(=O)[C@H](Cc2ccc(O)cc2)NC1=O [Cyclic peptide 32, KKKA-(Hcy)-YPRGDNYR(Dab(acetyl))D] (H-KKKA[hCys]YPRGDNYR[Dab]D-OH; linker 5-14 via X2)",–,–,< 50,A (The residual rate of the cyclic peptide is 70% or more.)
"C[C@H](NC(=O)[C@H](CCCCN)NC(=O)[C@H](CCCCN)NC(=O)[C@@H](N)CCCCN)C(=O)N[C@H]1CNC(=O)CSCC[C@@H](C(N)=O)NC(=O)[C@H](CCCNC(=N)N)NC(=O)[C@H](Cc2ccc(O)cc2)NC(=O)[C@H](CC(N)=O)NC(=O)[C@H](CC(=O)O)NC(=O)CNC(=O)[C@H](CCCNC(=N)N)NC(=O)[C@@H]2CCCN2C(=O)[C@H](CCC(=O)O)NC1=O [Cyclic peptide 53, KKKA(Dap(acetyl))EPRGDNYR-(Hcy)] (H-KKKA[Dap]EPRGDNYR[hCys]-NH2; linker 5-14 via X1)",–,–,50 to 100,B (The residual rate of the cyclic peptide is 50% or more and less than 70%.)
"C[C@H](NC(=O)[C@@H]1CCNC(=O)CSCC[C@H](NC(=O)[C@H](C)NC(=O)[C@H](CCCCN)NC(=O)[C@H](CCCCN)NC(=O)[C@@H](N)CCCCN)C(=O)N[C@@H](CCC(=O)O)C(=O)N2CCC[C@H]2C(=O)N[C@@H](CCCNC(=N)N)C(=O)NCC(=O)N[C@@H](CC(=O)O)C(=O)N[C@@H](CC(N)=O)C(=O)N[C@@H](Cc2ccc(O)cc2)C(=O)N[C@@H](CCCNC(=N)N)C(=O)N1)C(=O)O [Cyclic peptide 41, KKKA-(Hcy)-EPRGDNYR(Dab(acetyl))A] (H-KKKA[hCys]EPRGDNYR[Dab]A-OH; linker 5-14 via X2)",–,–,50 to 100,A (The residual rate of the cyclic peptide is 70% or more.)
"CC(C)[C@@H]1NC(=O)[C@@H](NC(=O)[C@H](CCCCN)NC(=O)[C@H](CCCCN)NC(=O)[C@@H](N)CCCCN)CCSCC(=O)NCC[C@@H](C(=O)O)NC(=O)[C@H]([C@@H](C)O)NC(=O)[C@H](Cc2ccccc2)NC(=O)[C@H]([C@@H](C)O)NC(=O)[C@H](CC(=O)O)NC(=O)CNC(=O)[C@H](CCCNC(=N)N)NC(=O)[C@@H]2CCCN2C1=O [Cyclic peptide 154, KKK-(Hcy)-VPRGDTFT(Dab(acetyl))] (H-KKK[hCys]VPRGDTFT[Dab]-OH; linker 4-13 via X2)",50 to 100,A (The residual rate of the cyclic peptide is 70% or more.),–,–
"CC(C)C[C@@H]1NC(=O)[C@@H](NC(=O)[C@H](CCCCN)NC(=O)[C@H](CCCCN)NC(=O)[C@@H](N)CCCCN)CCSCC(=O)NCC[C@@H](C(=O)O)NC(=O)[C@H](C)NC(=O)[C@H](Cc2ccccc2)NC(=O)[C@H]([C@@H](C)O)NC(=O)[C@H](CC(=O)O)NC(=O)CNC(=O)[C@H](CCCNC(=N)N)NC(=O)[C@@H]2CCCN2C1=O [Cyclic peptide 146, KKK-(Hcy)-LPRGDTFA(Dab(acetyl))] (H-KKK[hCys]LPRGDTFA[Dab]-OH; linker 4-13 via X2)",< 50,A (The residual rate of the cyclic peptide is 70% or more.),–,–
"C[C@H](NC(=O)[C@H](CCCCN)NC(=O)[C@H](CCCCN)NC(=O)[C@@H](N)CCCCN)C(=O)N[C@H]1CCSCC(=O)NCC[C@@H](C(N)=O)NC(=O)[C@H](CCCNC(=N)N)NC(=O)[C@H](Cc2ccc(O)cc2)NC(=O)[C@H](CC(N)=O)NC(=O)[C@H](CC(=O)O)NC(=O)CNC(=O)[C@H](CCCNC(=N)N)NC(=O)[C@@H]2CCCN2C(=O)[C@H](CCC(=O)O)NC1=O [Cyclic peptide 50, KKKA-(Hcy)-EPRGDNYR(Dab(acetyl))] (H-KKKA[hCys]EPRGDNYR[Dab]-NH2; linker 5-14 via X2)",–,–,100 to 200,A (The residual rate of the cyclic peptide is 70% or more.)
